Laboratory results: ChEMBL document CHEMBL1201862, “PubChem BioAssay data set” (2004)
Active and inactive are the calls of the source.

What was measured:
HEK293 [1] = assay: HEK cell cytotoxicity by LDH release, dose response, cytotoxicity control for IDE activator project, fluorescence, HEK cells (AID 588440); assay type: functional, cell-based; conditions: Homo sapiens;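 further: cytotoxicity by LDH release measuring loss of membrane integrity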
HEK293 [2] = assay: optical interference in Abeta FP readout, dose response, artefact control for IDE activator project, biochemical, fluorescence polarization (AID 588442); assay type: functional, cell-based; conditions: Homo sapiens
Insulin-degrading enzyme [3] = biological target: T1, Insulin-degrading enzyme (Homo sapiens, UniProt P14735); assay: activators of recombinant IDE enzyme, dose response, counter-screen for IDE activator project, biochemical, fluorescence polarization (AID 588681)
T1 sequence (P14735 whole entry): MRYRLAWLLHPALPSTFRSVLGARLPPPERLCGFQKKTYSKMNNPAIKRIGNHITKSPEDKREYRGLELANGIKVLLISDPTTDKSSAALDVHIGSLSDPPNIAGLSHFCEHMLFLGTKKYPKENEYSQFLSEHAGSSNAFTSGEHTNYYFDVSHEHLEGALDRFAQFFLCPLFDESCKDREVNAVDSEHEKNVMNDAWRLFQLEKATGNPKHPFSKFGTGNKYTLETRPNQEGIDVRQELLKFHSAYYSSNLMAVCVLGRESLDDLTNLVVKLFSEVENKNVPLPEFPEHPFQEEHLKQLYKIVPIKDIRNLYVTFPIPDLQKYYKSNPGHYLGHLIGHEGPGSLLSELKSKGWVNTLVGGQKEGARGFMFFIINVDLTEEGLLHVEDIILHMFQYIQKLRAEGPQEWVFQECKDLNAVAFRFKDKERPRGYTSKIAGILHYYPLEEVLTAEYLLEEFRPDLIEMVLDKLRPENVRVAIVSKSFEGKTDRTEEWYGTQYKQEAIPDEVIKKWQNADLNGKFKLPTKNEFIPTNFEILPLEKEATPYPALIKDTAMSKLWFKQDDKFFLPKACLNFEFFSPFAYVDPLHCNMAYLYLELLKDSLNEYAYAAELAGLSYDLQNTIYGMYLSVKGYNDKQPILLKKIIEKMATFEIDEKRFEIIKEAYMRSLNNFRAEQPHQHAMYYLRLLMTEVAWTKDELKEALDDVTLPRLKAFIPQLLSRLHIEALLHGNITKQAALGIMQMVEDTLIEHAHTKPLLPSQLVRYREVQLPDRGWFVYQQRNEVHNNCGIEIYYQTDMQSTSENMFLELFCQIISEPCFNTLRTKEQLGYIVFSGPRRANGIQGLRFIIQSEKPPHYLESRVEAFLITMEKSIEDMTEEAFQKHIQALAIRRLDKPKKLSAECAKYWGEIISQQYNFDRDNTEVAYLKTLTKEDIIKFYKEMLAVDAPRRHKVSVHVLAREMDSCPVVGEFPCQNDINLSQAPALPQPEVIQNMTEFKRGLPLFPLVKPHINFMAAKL

Insulin-degrading enzyme [4] = biological target: T1, Insulin-degrading enzyme; assay: activators of endogenous IDE in HEK cells, dose response, cell-based, fluorescence polarization (AID 588439); assay type: functional
[5] = biological target: Adenosylmethionine-8-amino-7-oxononanoate aminotransferase (Mycobacterium tuberculosis, UniProt P9WQ81); assay: Mycobacterium tuberculosis BioA enzyme inhibitor Measured in Biochemical System Using Plate Reader - 2163-02_Inhibitor_Dose_CherryPick_Activity.; assay type: functional, Mycobacterium tuberculosis UT205
Adenosylmethionine-8-amino-7-oxononanoate aminotransferase, sequence (P9WQ81 whole entry): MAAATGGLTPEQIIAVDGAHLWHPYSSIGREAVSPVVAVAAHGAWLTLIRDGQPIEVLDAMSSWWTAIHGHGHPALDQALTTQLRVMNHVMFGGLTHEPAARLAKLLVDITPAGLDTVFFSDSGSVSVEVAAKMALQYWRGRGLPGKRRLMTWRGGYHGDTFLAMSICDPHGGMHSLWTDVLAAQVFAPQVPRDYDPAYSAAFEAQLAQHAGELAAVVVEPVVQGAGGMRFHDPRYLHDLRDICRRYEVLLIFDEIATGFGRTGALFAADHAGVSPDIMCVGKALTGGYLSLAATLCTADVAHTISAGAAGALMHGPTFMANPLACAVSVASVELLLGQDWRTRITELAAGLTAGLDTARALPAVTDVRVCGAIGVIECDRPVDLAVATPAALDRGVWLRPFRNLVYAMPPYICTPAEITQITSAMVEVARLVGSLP

[6] = biological target: T2, Histone-lysine N-methyltransferase NSD2 (Homo sapiens, UniProt O96028); assay type: biochemical
T2 sequence (O96028 whole entry): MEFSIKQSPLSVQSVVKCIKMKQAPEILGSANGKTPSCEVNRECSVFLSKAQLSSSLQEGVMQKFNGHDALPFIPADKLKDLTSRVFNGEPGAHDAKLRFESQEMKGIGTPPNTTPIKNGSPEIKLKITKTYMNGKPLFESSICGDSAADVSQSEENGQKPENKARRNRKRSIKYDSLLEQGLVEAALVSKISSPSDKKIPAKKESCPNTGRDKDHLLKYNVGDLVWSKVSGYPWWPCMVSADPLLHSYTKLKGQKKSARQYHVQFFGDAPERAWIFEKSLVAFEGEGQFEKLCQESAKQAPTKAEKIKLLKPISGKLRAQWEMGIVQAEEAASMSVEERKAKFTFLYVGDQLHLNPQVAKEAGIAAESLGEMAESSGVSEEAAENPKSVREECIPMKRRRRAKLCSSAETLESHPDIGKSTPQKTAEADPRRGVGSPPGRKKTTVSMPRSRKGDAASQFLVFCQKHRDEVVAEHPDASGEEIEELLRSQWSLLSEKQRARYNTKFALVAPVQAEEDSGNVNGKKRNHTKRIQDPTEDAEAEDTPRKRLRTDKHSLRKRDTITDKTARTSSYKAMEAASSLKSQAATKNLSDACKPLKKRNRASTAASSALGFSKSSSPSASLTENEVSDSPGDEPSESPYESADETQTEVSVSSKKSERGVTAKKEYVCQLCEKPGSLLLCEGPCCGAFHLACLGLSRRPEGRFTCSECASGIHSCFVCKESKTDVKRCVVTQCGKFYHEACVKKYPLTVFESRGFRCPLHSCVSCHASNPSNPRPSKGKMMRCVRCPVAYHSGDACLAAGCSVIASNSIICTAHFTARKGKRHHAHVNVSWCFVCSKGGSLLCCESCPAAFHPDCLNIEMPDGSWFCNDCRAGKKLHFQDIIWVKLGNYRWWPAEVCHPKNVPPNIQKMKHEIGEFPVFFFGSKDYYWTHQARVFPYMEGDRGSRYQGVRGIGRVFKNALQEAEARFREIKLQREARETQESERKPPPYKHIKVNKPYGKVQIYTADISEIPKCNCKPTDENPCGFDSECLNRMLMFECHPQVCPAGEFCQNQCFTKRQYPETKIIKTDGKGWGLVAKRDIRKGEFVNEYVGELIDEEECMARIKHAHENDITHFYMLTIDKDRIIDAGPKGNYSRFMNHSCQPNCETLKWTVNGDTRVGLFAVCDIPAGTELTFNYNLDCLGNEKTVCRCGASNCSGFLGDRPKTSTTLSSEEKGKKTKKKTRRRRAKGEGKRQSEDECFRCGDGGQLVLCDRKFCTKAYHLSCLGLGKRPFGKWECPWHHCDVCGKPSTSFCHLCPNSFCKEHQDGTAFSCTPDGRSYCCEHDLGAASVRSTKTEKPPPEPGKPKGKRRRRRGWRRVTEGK

[7] = biological target: Ras and Rab interactor 1/Tyrosine-protein kinase ABL1 (Homo sapiens, UniProt P00519+Q13671); assay type: functional;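 further: biochemical TR-FRET dose-response test measuring inhibition of binding between Rin1 and Abl proteins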
Ras and Rab interactor 1/Tyrosine-protein kinase ABL1, sequence (P00519 whole entry): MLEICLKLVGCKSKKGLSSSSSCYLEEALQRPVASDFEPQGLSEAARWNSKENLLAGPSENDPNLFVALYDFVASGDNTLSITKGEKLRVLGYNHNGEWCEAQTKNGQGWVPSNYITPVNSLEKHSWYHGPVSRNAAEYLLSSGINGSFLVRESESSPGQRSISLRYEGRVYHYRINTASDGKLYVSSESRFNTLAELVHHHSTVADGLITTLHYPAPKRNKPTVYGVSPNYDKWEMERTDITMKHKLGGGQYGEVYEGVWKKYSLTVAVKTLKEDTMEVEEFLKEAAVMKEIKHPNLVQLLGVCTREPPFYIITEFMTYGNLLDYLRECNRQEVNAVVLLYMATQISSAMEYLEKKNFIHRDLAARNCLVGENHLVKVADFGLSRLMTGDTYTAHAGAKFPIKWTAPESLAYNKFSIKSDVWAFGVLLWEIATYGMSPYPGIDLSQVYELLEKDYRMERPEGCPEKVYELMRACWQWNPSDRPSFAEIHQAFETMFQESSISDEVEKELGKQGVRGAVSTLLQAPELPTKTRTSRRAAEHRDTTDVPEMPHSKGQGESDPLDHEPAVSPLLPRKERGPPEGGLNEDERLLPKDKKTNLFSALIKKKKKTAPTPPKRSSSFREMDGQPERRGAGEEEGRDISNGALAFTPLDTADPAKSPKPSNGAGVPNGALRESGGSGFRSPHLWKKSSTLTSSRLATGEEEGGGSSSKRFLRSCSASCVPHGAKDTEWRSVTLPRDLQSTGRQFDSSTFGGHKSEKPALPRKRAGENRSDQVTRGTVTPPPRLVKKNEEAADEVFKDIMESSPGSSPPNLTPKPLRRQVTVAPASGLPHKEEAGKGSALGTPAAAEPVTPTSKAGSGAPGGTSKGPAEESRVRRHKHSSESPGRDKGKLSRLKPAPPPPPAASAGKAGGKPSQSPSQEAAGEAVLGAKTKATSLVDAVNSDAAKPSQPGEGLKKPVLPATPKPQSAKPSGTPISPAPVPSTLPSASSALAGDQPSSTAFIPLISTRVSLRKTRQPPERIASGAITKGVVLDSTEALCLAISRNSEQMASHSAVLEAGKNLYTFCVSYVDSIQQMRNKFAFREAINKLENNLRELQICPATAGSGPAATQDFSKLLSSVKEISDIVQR
Ras and Rab interactor 1/Tyrosine-protein kinase ABL1, sequence (Q13671 whole entry): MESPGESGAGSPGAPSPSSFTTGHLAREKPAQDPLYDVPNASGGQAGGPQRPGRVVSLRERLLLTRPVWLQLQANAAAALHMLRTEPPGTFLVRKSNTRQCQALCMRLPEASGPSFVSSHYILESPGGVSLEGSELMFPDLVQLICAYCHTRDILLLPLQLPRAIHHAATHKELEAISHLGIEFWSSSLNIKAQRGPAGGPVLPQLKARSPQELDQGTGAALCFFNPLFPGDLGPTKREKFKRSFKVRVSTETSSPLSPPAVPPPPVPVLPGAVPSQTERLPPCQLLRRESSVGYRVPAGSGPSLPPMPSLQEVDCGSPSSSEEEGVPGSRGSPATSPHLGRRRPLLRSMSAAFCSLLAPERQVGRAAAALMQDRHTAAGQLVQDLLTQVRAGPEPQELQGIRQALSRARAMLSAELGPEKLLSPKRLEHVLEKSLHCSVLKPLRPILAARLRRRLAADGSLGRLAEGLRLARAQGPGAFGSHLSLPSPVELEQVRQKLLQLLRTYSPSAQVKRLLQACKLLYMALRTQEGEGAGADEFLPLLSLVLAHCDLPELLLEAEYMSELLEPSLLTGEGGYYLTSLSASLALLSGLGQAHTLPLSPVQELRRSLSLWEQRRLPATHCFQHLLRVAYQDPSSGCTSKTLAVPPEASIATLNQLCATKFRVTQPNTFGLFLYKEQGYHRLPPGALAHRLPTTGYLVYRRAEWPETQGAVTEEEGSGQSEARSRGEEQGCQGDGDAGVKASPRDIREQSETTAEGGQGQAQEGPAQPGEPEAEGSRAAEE

[8] = nonselective inhibitors of cellular cAMP signaling, dose response, counter-screen for MC4R biased antagonist project, cell-based, TR-FRET cAMP detection (AID 602305); assay type: functional;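 further: U2OS cells stimulated with forskolin near its EC80 as the cAMP inducer; potency is for inhibition of forskolin-stimulated cAMP signaling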
Melanocortin receptor 4 = Melanocortin receptor 4 (Homo sapiens, UniProt P32245); assay: MC4R antagonist potency on cAMP, dose response, cell-based, TR-FRET, biased antagonists (AID 602298); assay type: functional;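 further: antagonist potency against agonist-stimulated cAMP production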
Melanocortin receptor 4, sequence (P32245 whole entry): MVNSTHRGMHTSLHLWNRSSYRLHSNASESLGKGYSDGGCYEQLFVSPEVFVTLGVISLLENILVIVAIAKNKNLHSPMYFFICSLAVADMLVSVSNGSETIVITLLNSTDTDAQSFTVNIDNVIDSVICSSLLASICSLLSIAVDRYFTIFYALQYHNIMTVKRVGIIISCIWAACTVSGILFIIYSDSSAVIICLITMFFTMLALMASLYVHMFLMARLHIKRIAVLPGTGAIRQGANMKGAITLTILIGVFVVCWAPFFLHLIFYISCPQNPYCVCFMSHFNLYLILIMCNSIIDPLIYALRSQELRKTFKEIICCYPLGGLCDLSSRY

| SMILES | IC50 (HEK293 [1]) | EC50 (HEK293 [2]) | EC50 (Insulin-degrading enzyme [3]) | EC50 (Insulin-degrading enzyme [4]) | also measured |
| --- | --- | --- | --- | --- | --- |
| CC(=O)N1CCC(=O)Nc2ccc([N+](=O)[O-])cc21 | > 89.3 µM (inactive) | > 54.7 µM (inactive) | > 54.7 µM (inactive) | > 54.7 µM (inactive) | – |
| O=C(c1ccc(Br)s1)N1CCN(Cc2ccc3c(c2)OCO3)CC1 | – | – | – | – | AC50 [5]: 1.64 µM (active) |
| CCOC(=O)CCCCC(=O)c1[nH]c(O)nc1CSc1nc(C)cc(O)n1 | – | – | – | – | AC50 [6]: 8.18 µM (active); IC50 [7]: 0.192 µM (active) |
| COc1cc(OC)c(C(=O)Nc2cccnc2)cc1OC | – | – | – | – | AC50 [5]: 1.81 µM (active) |
| Cc1cc2nccc(-c3ccc(Cl)c([N+](=O)[O-])c3)n2n1 | – | – | – | – | IC50 [8]: > 64.6 µM (inactive); IC50 (Melanocortin receptor 4): > 64.6 µM (inactive) |
| O=[N+]([O-])c1cccc(Cl)c1NCCNc1ncc(C(F)(F)F)cc1Cl | > 89.2 µM (inactive) | > 54.7 µM (inactive) | > 54.7 µM (inactive) | > 54.7 µM (inactive) | – |
| COc1ccccc1NS(=O)(=O)c1cccc(NC(=O)C2CC2)c1 | > 89.2 µM (inactive) | > 55.9 µM (inactive) | > 54.7 µM (inactive) | > 54.7 µM (inactive) | – |
